Source: ChEMBL document CHEMBL5532645, “Discovery of proteolysis-targeting chimera targeting undruggable proteins using a covalent ligand screening approach” (Eur J Med Chem, 2024)
Blank lines part the entries; values can stand above or below the molecule they belong to. Activity calls are given as the source filed them. The calls are words filed in the database; no cut-off is given here.

Experiments:
[1] = biological target: T1, Protein cereblon/E3 ubiquitin-protein ligase Mdm2 (Homo sapiens) (UniProt Q00987+Q96SW2); experiment: PROTAC activity at CRBN/MDM2 in human HEK293 cells at 30 uM measured after 24 hrs Western blot analysis relative to control; assay type: cell-based
T1 sequence (Q00987 whole entry, looked up): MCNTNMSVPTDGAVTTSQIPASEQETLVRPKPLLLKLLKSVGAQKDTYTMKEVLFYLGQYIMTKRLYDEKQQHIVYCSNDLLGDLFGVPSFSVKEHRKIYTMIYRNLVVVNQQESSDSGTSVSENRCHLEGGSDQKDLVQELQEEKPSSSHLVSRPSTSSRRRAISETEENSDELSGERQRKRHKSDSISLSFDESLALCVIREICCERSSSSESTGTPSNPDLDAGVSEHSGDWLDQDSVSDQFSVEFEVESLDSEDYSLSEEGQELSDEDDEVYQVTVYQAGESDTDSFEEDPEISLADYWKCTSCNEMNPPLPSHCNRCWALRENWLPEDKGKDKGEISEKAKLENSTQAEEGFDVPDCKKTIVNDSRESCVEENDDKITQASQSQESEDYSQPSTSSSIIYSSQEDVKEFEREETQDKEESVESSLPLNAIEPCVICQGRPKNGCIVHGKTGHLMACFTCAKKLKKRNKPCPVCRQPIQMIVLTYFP
T1 sequence (Q96SW2 whole entry, looked up): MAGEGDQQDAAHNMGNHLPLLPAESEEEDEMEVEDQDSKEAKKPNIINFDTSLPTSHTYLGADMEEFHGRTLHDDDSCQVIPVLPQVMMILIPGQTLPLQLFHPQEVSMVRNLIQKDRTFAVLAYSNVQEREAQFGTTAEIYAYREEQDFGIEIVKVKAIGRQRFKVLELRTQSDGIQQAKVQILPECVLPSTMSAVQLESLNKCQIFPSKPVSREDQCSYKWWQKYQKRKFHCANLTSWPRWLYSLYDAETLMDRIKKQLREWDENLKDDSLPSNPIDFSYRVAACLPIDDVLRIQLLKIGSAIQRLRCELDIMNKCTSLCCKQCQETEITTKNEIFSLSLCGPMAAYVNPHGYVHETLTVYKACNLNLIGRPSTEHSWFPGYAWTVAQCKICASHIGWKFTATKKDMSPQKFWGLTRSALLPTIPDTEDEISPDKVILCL

[2] = biological target: T1, Protein cereblon/E3 ubiquitin-protein ligase Mdm2 (Homo sapiens); experiment: PROTAC activity at CRBN/MDM2 in human HEK293 cells assessed as increase in MDM2 expression at 30 uM measured after 6 hrs by Western blot analysis; assay type: cell-based
HEK293 = experiment: Cytotoxicity against HEK293 cells assessed as cell viability at 0.3 uM incubated for 24 hrs by cell counting kit 8 method; assay type: toxicity, cell-based; settings: human, hek293, 24 h
[3] = biological target: T1, Protein cereblon/E3 ubiquitin-protein ligase Mdm2 (Homo sapiens); experiment: PROTAC activity at CRBN/MDM2 in human HEK293 cells at 3 to 10 uM preincubated with MG132 for 4 hrs followed by compound addition and measured after 20 hrs by Western blot analysis; assay type: cell-based; settings: dose 3-10 µM
[4] = biological target: T1, Protein cereblon/E3 ubiquitin-protein ligase Mdm2 (Homo sapiens); experiment: PROTAC activity at CRBN/MDM2 in human HEK293 cells at 3 to 10 uM preincubated with MLN4924 for 4 hrs followed by compound addition and measured after 20 hrs by Western blot analysis; assay type: cell-based; settings: dose 3-10 µM
[5] = biological target: T1, Protein cereblon/E3 ubiquitin-protein ligase Mdm2 (Homo sapiens); experiment: PROTAC activity at CRBN/MDM2 in human HEK293 cells assessed as induction of MDM2 degradation measured after 24 hrs by Western blot analysis; assay type: cell-based; settings: dose 3-30 µM
[6] = biological target: T1, Protein cereblon/E3 ubiquitin-protein ligase Mdm2 (Homo sapiens); experiment: PROTAC activity at CRBN/MDM2 in human HEK293 cells assessed as induction of MDM2 degradation at 30 uM by Western blot analysis; assay type: cell-based; settings: time 2-24 hrs, TDE = time-dependent effect
[7] = biological target: T1, Protein cereblon/E3 ubiquitin-protein ligase Mdm2 (Homo sapiens); experiment: PROTAC activity at CRBN/MDM2 in human HEK293 cells assessed as maximum degradation at 10 uM measured after 24 to 48 hrs by Western blot analysis; assay type: cell-based; settings: time 24-48 hrs
[8] = biological target: T1, Protein cereblon/E3 ubiquitin-protein ligase Mdm2 (Homo sapiens); experiment: PROTAC activity at CRBN/MDM2 in human HEK293 cells assessed as induction of MDM2 degradation at 3 to 10 uM; assay type: cell-based; settings: dose 3-10 µM
[9] = biological target: T1, Protein cereblon/E3 ubiquitin-protein ligase Mdm2 (Homo sapiens); experiment: PROTAC activity at CRBN/MDM2 in human HEK293 cells assessed as induction of MDM2 degradation at 30 uM measured after 2 hrs by Western blot analysis; assay type: cell-based
[10] = biological target: T1, Protein cereblon/E3 ubiquitin-protein ligase Mdm2 (Homo sapiens); experiment: PROTAC activity at CRBN/MDM2 in human HEK293 cells assessed as induction of MDM2 degradation at 30 uM measured after 24 hrs by Western blot analysis; assay type: cell-based

Emax [1]: 28.3%
Activity [2]: Active
SMILES: O=C1CCC(N2C(=O)c3cccc(NCCOCCOCCC(=O)N4CCOC(c5cccc(OC(F)F)c5)C4)c3C2=O)C(=O)N1 (stereo not given)

Emax [1]: 5.6%
SMILES: CN(C(=O)CCOCCOCCOCCNc1cccc2c1C(=O)N(C1CCC(=O)NC1=O)C2=O)C(c1ccc(F)cc1)c1cccnc1 (stereo not given)

SMILES: NS(=O)(=O)OC[C@@H]1C[C@@H](n2ccc3c(N[C@H]4CCc5ccccc54)ncnc32)C[C@@H]1O [PEVONEDISTAT]
Activity (HEK293): Non-Toxic

Emax [1]: 23.2%
SMILES: O=C1CCC(N2C(=O)c3ccc(NCCOCCC(=O)N4CCOC(c5cccc(OC(F)F)c5)C4)cc3C2=O)C(=O)N1 (stereo not given)

Emax [1]: 5.5%
SMILES: CN(C(=O)CCOCCOCCOCCOCCNc1cccc2c1C(=O)N(C1CCC(=O)NC1=O)C2=O)C(c1ccc(F)cc1)c1cccnc1 (stereo not given)

Activity [3]: inactive
Activity [4]: inactive
Emax [1]: 31.2%
Activity [5]: Dose-Dependent Effect
Activity [6]: Tde
Activity [7]: Active
Activity [8]: Active
SMILES: CN(C(=O)CCOCCNc1cccc2c1C(=O)N(C1CCC(=O)NC1=O)C2=O)C(c1ccc(F)cc1)c1cccnc1 (stereo not given)

Emax [1]: 26.5%
SMILES: CN(C(=O)CCOCCOCCNc1cccc2c1C(=O)N(C1CCC(=O)NC1=O)C2=O)C(c1ccc(F)cc1)c1cccnc1 (stereo not given)

Emax [1]: inactive
Activity [8]: inactive
SMILES: CN1C(=O)CCC(N2C(=O)c3cccc(NCCOCCC(=O)N(C)C(c4ccc(F)cc4)c4cccnc4)c3C2=O)C1=O (stereo not given)

Emax [1]: 31.5%
Activity [9]: Active
Activity [10]: inactive
Activity [2]: Active
SMILES: O=C1CCC(N2C(=O)c3ccc(NCCOCCOCCC(=O)N4CCN(c5nccc(C(F)(F)F)n5)CC4)cc3C2=O)C(=O)N1 (stereo not given)
